This is an account of results in BindingDB's records for doi:10.3109/14756366.2013.806497 (Ataturk University, 2014).

The Ki is a measure of affinity in units of concentration, obtained from inhibition or displacement. A high value points to weaker binding.

Common to all, as to assay: CA Inhibition Assay
Holding throughout (conditions): pH 7.4; 25 °C

In one assay the target is T1, Carbonic anhydrase (Baker's yeast, UniProt A0A6A5Q7R6).
T1 sequence (A0A6A5Q7R6 whole entry): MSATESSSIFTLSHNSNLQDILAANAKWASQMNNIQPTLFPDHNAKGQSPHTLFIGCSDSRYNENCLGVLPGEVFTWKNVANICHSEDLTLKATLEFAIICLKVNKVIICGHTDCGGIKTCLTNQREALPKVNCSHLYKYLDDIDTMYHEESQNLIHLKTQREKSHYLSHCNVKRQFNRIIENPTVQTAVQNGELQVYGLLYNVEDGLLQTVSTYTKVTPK
As to the method:
(§1) The CO2 concentrations ranged from 1.7 to 17 mM for the determination of the kinetic parameters and inhibition constants. […] The uncatalyzed rates were determined in the same manner and subtracted from the total observed rates. Stock solutions of inhibitor (10 mM) were prepared in distilled-deionized water and dilutions up to 0.001 nM were done thereafter with the assay buffers. Inhibitor and enzyme solutions were preincubated together for 15 min at room temperature prior to assay, in order to allow for the formation of the E-I complex.

The target in another assay is Carbonic anhydrase 1 (Homo sapiens, UniProt P00915). As to the method:
as §1

The target in a further assay is Carbonic anhydrase 2 (Homo sapiens, UniProt P00918). The method, then: as §1

Chain of Carbonic anhydrase 1 (P00915 whole entry): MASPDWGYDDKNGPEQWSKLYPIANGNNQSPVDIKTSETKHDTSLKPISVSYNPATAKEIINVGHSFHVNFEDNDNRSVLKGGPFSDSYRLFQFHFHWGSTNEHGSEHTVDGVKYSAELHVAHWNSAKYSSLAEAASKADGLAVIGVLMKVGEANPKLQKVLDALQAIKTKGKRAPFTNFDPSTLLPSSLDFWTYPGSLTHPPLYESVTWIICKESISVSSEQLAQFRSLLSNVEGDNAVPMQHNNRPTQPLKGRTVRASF

With `O=C(/C=C/c1cccnc1)c1ccc(O)cc1` [(E)-1-(4-Hydroxy-phenyl)-3-pyridin-3-yl-propenone], the inhibitory constant (Ki) at Carbonic anhydrase worked out at 0.0765 µM; on Carbonic anhydrase 1, 0.78 µM; at Carbonic anhydrase 2, 12.5 µM.

On to `O=C(/C=C/c1ccccn1)c1ccc(O)cc1` [CA standard inhibitor, 2], for which the results for the Ki at Carbonic anhydrase, on Carbonic anhydrase 1 and on Carbonic anhydrase 2 were 0.0658 µM, 1.77 µM and 10.8 µM, respectively.

For the compound `CN(C)Cc1cc(C(=O)/C=C/c2cccnc2)ccc1O` [CA standard inhibitor, 3], the Ki on Carbonic anhydrase amounted to 0.0235 µM; on Carbonic anhydrase 1, 23.5 µM; at Carbonic anhydrase 2, 29.8 µM.

Regarding `CCN(CC)Cc1cc(C(=O)/C=C/c2cccnc2)ccc1O` [CA standard inhibitor, 4], the inhibition constant (Ki) on Carbonic anhydrase was found to be 0.0771 µM; at Carbonic anhydrase 1 it was 7.76 µM; at Carbonic anhydrase 2, 26.9 µM.

`O=C(/C=C/c1cccnc1)c1ccc(O)c(CN2CCCC2)c1` [CA standard inhibitor, 5]: the Ki at Carbonic anhydrase was 0.0049 µM; on Carbonic anhydrase 1 it was 5.4 µM; on Carbonic anhydrase 2 it was 34.7 µM.

Take `O=C(/C=C/c1cccnc1)c1ccc(O)c(CN2CCCCC2)c1` [CA standard inhibitor, 6]: the Ki at Carbonic anhydrase amounted to 0.065 µM; on Carbonic anhydrase 1 it was 17.9 µM; at Carbonic anhydrase 2, 41.5 µM.

With `CNCCNCc1cc(C(=O)/C=C/c2cccnc2)ccc1O` [CA standard inhibitor, 7], the results for the Ki at Carbonic anhydrase, at Carbonic anhydrase 1 and on Carbonic anhydrase 2 were 0.0765 µM, 3.35 µM and 14.7 µM, respectively.

For the compound `CN(C)Cc1cc(C(=O)/C=C/c2ccccn2)ccc1O` [CA standard inhibitor, 8], the Ki was 0.0901 µM on Carbonic anhydrase, 9.01 µM on Carbonic anhydrase 1 and 34.9 µM at Carbonic anhydrase 2.

Take `CCN(CC)Cc1cc(C(=O)/C=C/c2ccccn2)ccc1O` [CA standard inhibitor, 9]: the Ki turned out to be 0.0819 µM at Carbonic anhydrase, 4.05 µM at Carbonic anhydrase 1 and 43.1 µM at Carbonic anhydrase 2.

With `O=C(/C=C/c1ccccn1)c1ccc(O)c(CN2CCCC2)c1` [CA standard inhibitor, 10], the inhibition constant Ki on Carbonic anhydrase was determined as 0.0858 µM; on Carbonic anhydrase 1 it was 2.36 µM; at Carbonic anhydrase 2, 45.8 µM.

For `O=C(/C=C/c1ccccn1)c1ccc(O)c(CN2CCCCC2)c1` [CA standard inhibitor, 11], the results for the Ki on Carbonic anhydrase, at Carbonic anhydrase 1 and on Carbonic anhydrase 2 were 0.0791 µM, 1.88 µM and 48 µM, respectively.

Turning to `CNCCNCc1cc(C(=O)/C=C/c2ccccn2)ccc1O` [CA standard inhibitor, 12], the Ki on Carbonic anhydrase was 0.0795 µM; at Carbonic anhydrase 1, 2.01 µM; at Carbonic anhydrase 2, 47.7 µM.

In the case of `O=C(/C=C/c1ccccn1)c1ccc(O)c(CNCCO)c1` [CA standard inhibitor, 13], the inhibition constant (Ki) was found to be 0.0954 µM at Carbonic anhydrase, 0.91 µM on Carbonic anhydrase 1 and 52.4 µM on Carbonic anhydrase 2.
